Laboratory results from ChEMBL document CHEMBL4219203, “Design, synthesis and biological evaluation of seco-A-pentacyclic triterpenoids-3,4-lactone as potent non-nucleoside HBV inhibitors” (Bioorg Med Chem Lett, 2018).
Activity calls are given as the source filed them. The rule behind the calls is not given here.

Tests used:
Hepatitis B virus [1] = assay: Antiviral activity against Hepatitis B virus infected in human HepG2.215 cells assessed as inhibition of HBeAg secretion after 3 days by ELISA; type: functional, organism-based; conditions: HepG2.2.15, 72 h
Hepatitis B virus [2] = assay: Antiviral activity against Hepatitis B virus infected in human HepG2.215 cells assessed as reduction in covalently closed circular DNA level after 9 days by real time QF-PCR analysis; type: functional, organism-based; conditions: HepG2.2.15, 216 h
[3] = Selectivity index, ratio of CC50 for human HepG2.215 cells to IC50 for Hepatitis B virus infected in human HepG2.215 cells assessed as inhibition of HBeAg secretion; type: toxicity, cell-based; conditions: HepG2.2.15 cells (Hepatitis B virus infected), read-out: Ratio CC50/IC50
[4] = Selectivity index, ratio of CC50 for human HepG2.215 cells to IC50 for Hepatitis B virus infected in human HepG2.215 cells assessed as inhibition of HBsAg secretion; type: toxicity, cell-based; conditions: HepG2.2.15 cells (Hepatitis B virus infected), read-out: Ratio CC50/IC50
[5] = Cytotoxicity against human HepG2.215 cells assessed as reduction in cell viability after 3 days by MTT assay; type: cell-based, HepG2 2.2.15; conditions: HepG2.2.15 cells
Hepatitis B virus [6] = assay: Antiviral activity against Hepatitis B virus infected in human HepG2.215 cells assessed as reduction in cellular viral DNA level at 25 uM after 9 days by real time QF-PCR analysis relative to control; type: functional; conditions: for inhibition at 25 µM: HepG2.2.15, 216 h
Hepatitis B virus [7] = assay: Antiviral activity against Hepatitis B virus infected in human HepG2.215 cells assessed as inhibition of HBsAg secretion after 3 days by ELISA; type: functional, organism-based; conditions: HepG2.2.15, 72 h
Hepatitis B virus [8] = assay: Antiviral activity against Hepatitis B virus infected in human HepG2.215 cells assessed as inhibition of HBeAg secretion by measuring FITC-labeled monoclonal mouse HBeAg antibody non-labeled cells level at 12.5 uM after 3 days by flow cytometry (reference value: 0.5%); type: functional; conditions: HepG2.2.15, 72 h
[9] = Selectivity index, ratio of CC50 for human HepG2.215 cells to IC50 for Hepatitis B virus infected in human HepG2.215 cells assessed as reduction in covalently closed circular DNA level; type: toxicity, cell-based; conditions: HepG2.2.15 cells (Hepatitis B virus infected), read-out: Ratio CC50/IC50
Hepatitis B virus [10] = assay: Antiviral activity against Hepatitis B virus infected in human HepG2.215 cells assessed as inhibition of HBeAg secretion by measuring FITC-labeled monoclonal mouse HBeAg antibody non-labeled cells level at 6.25 uM after 3 days by flow cytometry (reference value: 0.5%); type: functional; conditions: HepG2.2.15, 72 h
Hepatitis B virus [11] = assay: Antiviral activity against Hepatitis B virus infected in human HepG2.215 cells assessed as inhibition of HBeAg secretion by measuring FITC-labeled monoclonal mouse HBeAg antibody non-labeled cells level at 25 uM after 3 days by flow cytometry (reference value: 0.5%); type: functional; conditions: HepG2.2.15, 72 h

| SMILES | IC50 (Hepatitis B virus [1]) [µM] | IC50 (Hepatitis B virus [2]) [µM] | selectivity ratio [3] | selectivity ratio [4] | CC50 at 72 h [5] [µM] | inhibition at 25 µM (Hepatitis B virus [6]) [%] | IC50 (Hepatitis B virus [7]) [µM] | inhibition at 12.5 µM (Hepatitis B virus [8]) [%] | selectivity ratio [9] | inhibition at 6.25 µM (Hepatitis B virus [10]) [%] | inhibition at 25 µM (Hepatitis B virus [11]) [%] | inhibition (Hepatitis B virus [6]) |
| --- | --- | --- | --- | --- | --- | --- | --- | --- | --- | --- | --- | --- |
| CC1(C)CC[C@]2(C(=O)O)CC[C@]3(C)C(=CC(=O)[C@@H]4[C@@]5(C)CCC(=O)OC(C)(C)[C@@H]5CC[C@]43C)[C@@H]2C1 | 0.14 | 33.5 | > 200 | 1.81 | 583 | 82.6 | 321 | 7.8 | 17.4 | 7.7 | 33.5 | – |
| C[C@H]1C(=O)CC[C@@H]2[C@]1(C)CC[C@H]1[C@@]2(C)CC[C@@]2(C)[C@@H]3CC(C)(C)CC[C@]3(C)CC[C@]12C [FRIEDELINE] | 1250 | – | 1.43 | 1.48 | 1790 | – | 1210 | – | – | – | – | – |
| CC1(C)CC[C@]2(C(=O)O)CC[C@]3(C)C(Br)(CC[C@@H]4[C@@]5(C)CCC(=O)OC(C)(C)[C@@H]5CC[C@]43C)[C@@H]2C1 (some centres not stated) | 92.3 | – | 5.21 | 1.59 | 485 | – | 305 | – | – | – | – | – |
| C[C@H]1[C@H](C)CC[C@]2(C(=O)O)CC[C@]3(C)C(=CC[C@@H]4[C@@](C)(CCC(=O)O)[C@H](C(C)(C)O)CC[C@]43C)[C@H]12 | 384 | – | 1.2 | 1.13 | 461 | – | 406 | – | – | – | – | – |
| CC1(C)CC[C@@]23CC[C@]4(C)[C@@](OC2=O)([C@@H]3C1)[C@@H](O)C[C@@H]1[C@@]2(C)CCC(=O)OC(C)(C)[C@@H]2CC[C@]14C | 149 | – | 3.03 | 1.57 | 540 | – | 286 | – | – | – | – | Active |
| C[C@H]1[C@H](C)CC[C@]2(C(=O)O)CC[C@]3(C)C(=CC[C@@H]4[C@@]5(C)CCC(=O)OC(C)(C)[C@@H]5CC[C@]43C)[C@H]12 | 176 | – | 2.3 | 1.43 | 406 | – | 284 | – | – | – | – | – |
| C[C@H]1[C@H](C)CC[C@]2(C(=O)O)CC[C@]3(C)C(=CC[C@@H]4[C@@]5(C)CC[C@H](O)C(C)(C)[C@@H]5CC[C@]43C)[C@H]12 [URSOLIC ACID] | 897 | – | 1.72 | 1.13 | 1540 | – | 1360 | – | – | – | – | – |
| C[C@H]1OC(=O)CC[C@@H]2[C@]1(C)CC[C@H]1[C@@]2(C)CC[C@@]2(C)[C@@H]3CC(C)(C)CC[C@]3(C)CC[C@]12C [FRIEDELIN-3,4-LACTONE] | 790 | – | 0.61 | 0.63 | 482 | – | 765 | – | – | – | – | – |
| CC1(C)[C@@H](O)CC[C@]2(C)[C@H]3C(=O)C=C4[C@@H]5C[C@@](C)(C(=O)O)CC[C@]5(C)CC[C@@]4(C)[C@]3(C)CC[C@@H]12 [ENOXOLONE] | 806 | – | 0.81 | 1.27 | 650 | – | 510 | – | – | – | – | – |
| CC1(C)CC[C@]2(C(=O)O)CC[C@]3(C)C(Br)(CC[C@@H]4[C@@]5(C)CCC(=O)C(C)(C)[C@@H]5CC[C@]43C)[C@@H]2C1 (some centres not stated) | 925 | – | 0.1 | 0.11 | 100 | – | 883 | – | – | – | – | – |
| CC(C)(O)[C@@H]1CC[C@]2(C)[C@H](C(=O)C=C3[C@@H]4C[C@@](C)(C(=O)O)CC[C@]4(C)CC[C@]32C)[C@@]1(C)CCC(=O)O | 257 | 12.3 | 7.95 | 7.87 | 2040 | 91.4 | 259 | – | 166 | – | – | – |
| CC1(C)CC[C@@]23CC[C@]4(C)[C@@](OC2=O)([C@@H]3C1)[C@@H](O)C[C@@H]1[C@@](C)(CCC(=O)O)[C@H](C(C)(C)O)CC[C@]14C | 112 | – | 4.04 | 1.32 | 452 | – | 340 | – | – | – | – | Active |
| CC1(C)OC(=O)CC[C@]2(C)[C@H]3C(=O)C=C4[C@@H]5C[C@@](C)(C(=O)O)CC[C@]5(C)CC[C@@]4(C)[C@]3(C)CC[C@@H]12 | 81.9 | – | 6.67 | 3.2 | 546 | – | 171 | – | – | – | – | Active |
| CC1(C)CC[C@]2(C(=O)O)CC[C@]3(C)C(=CC[C@@H]4[C@@]5(C)CC[C@H](O)C(C)(C)[C@@H]5CC[C@]43C)[C@@H]2C1 [OLEANOLIC_ACID] | 814 | – | 0.9 | 0.53 | 731 | – | 1360 | – | – | – | – | – |
| Nc1ccn([C@H]2CS[C@@H](CO)O2)c(=O)n1 | 1440 | – | – | – | 876 | 92.8 | 917 | – | – | – | – | – |
| CC1(C)CC[C@]2(C(=O)O)CC[C@]3(C)C(=CC[C@@H]4[C@@]5(C)CCC(=O)OC(C)(C)[C@@H]5CC[C@]43C)[C@@H]2C1 | 0.86 | 32.7 | > 200 | 1.32 | 477 | 81.6 | 360 | 10.6 | 14.5 | 6.2 | 34 | – |
